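All cell lines were grown in 96-well plates and treated with compound for 48 hours. GI50 marks 50% less growth.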 Calls of active or inactive are those of the source. No stated cut-off is given here; in the data, active = GI50 up to about 1.1 µM and inactive = higher.
Legend:
Experiment in all cases: growth of human tumour cells (NCI), 48 h
786-0 = system: 786-0
ACHN = system: ACHN
CCRF-CEM = system: CCRF-CEM
DU-145 = system: DU-145
HCC 2998 = system: HCC 2998
HCT-116 = system: HCT-116
HT-29 = system: HT-29
IGROV-1 = system: IGROV-1
KM12 = system: KM12
M14 = system: M14
MCF7 = system: MCF7
MDA-MB-231 = system: MDA-MB-231
Malme-3M = system: Malme-3M
OVCAR-5 = system: OVCAR-5
PC-3 = system: PC-3
RXF 393 = system: RXF 393
SF-539 = system: SF-539
SK-MEL-28 = system: SK-MEL-28
SR = system: SR
SW-620 = system: SW-620

SMILES | GI50 (786-0) | GI50 (ACHN) | GI50 (CCRF-CEM) | GI50 (DU-145) | GI50 (HCC 2998) | GI50 (HCT-116) | GI50 (HT-29) | GI50 (IGROV-1) | GI50 (KM12) | GI50 (M14) | GI50 (MCF7) | GI50 (MDA-MB-231) | GI50 (Malme-3M) | GI50 (OVCAR-5) | GI50 (PC-3) | GI50 (RXF 393) | GI50 (SF-539) | GI50 (SK-MEL-28) | GI50 (SR) | GI50 (SW-620)
CCOC(=O)C1(Cc2ccccc2)CCN(C(=O)c2ccccc2)C2C1C2(Cl)Cl (stereo not given) | 20.1 µM (inactive) | 21.6 µM (inactive) | 20 µM (inactive) | 33 µM (inactive) | 14.5 µM (inactive) | 15 µM (inactive) | 16.6 µM (inactive) | 31.2 µM (inactive) | 29.9 µM (inactive) | 18.3 µM (inactive) | 25.4 µM (inactive) | 17.1 µM (inactive) | 21.4 µM (inactive) | 29.9 µM (inactive) | 16.7 µM (inactive) | 16 µM (inactive) | 18 µM (inactive) | 21.1 µM (inactive) | 23.6 µM (inactive) | 25.7 µM (inactive)
O=C(CCCCCCCCC(=O)NN1C(=O)/C(=C\c2ccc(O)c(O)c2)SC1c1c(O)ccc2ccccc12)NN1C(=O)C(=Cc2ccc(O)c(O)c2)SC1c1c(O)ccc2ccccc12 (stereo not given) | 3.46 µM (inactive) | 4.8 µM (inactive) | 0.828 µM (active) | 8.28 µM (inactive) | 24.5 µM (inactive) | 4.05 µM (inactive) | 10.8 µM (inactive) | 8.51 µM (inactive) | 23.9 µM (inactive) | 5.02 µM (inactive) | 10.1 µM (inactive) | > 23.8 µM (inactive) | 5.24 µM (inactive) | > 49.5 µM (inactive) | 10.9 µM (inactive) | 10 µM (inactive) | 8.45 µM (inactive) | 10 µM (inactive) | 4.42 µM (inactive) | 7.64 µM (inactive)
Nc1nc(Nc2ccccc2)sc1C(=O)c1cccs1 | 11.5 µM (inactive) | 16.8 µM (inactive) | 2.81 µM (inactive) | 8.97 µM (inactive) | 17 µM (inactive) | 4.06 µM (inactive) | 5.32 µM (inactive) | 11.7 µM (inactive) | 4.19 µM (inactive) | 21.1 µM (inactive) | 8.13 µM (inactive) | 28.7 µM (inactive) | 22.1 µM (inactive) | 11.7 µM (inactive) | 15.9 µM (inactive) | 5.93 µM (inactive) | 10.7 µM (inactive) | 25.4 µM (inactive) | 1.74 µM (inactive) | 11.6 µM (inactive)
CC(=O)Oc1ccc2ccc(=O)oc2c1OC(C)=O | 42.1 µM (inactive) | 45.4 µM (inactive) | 10.6 µM (inactive) | > 100 µM (inactive) | 48 µM (inactive) | 36.3 µM (inactive) | > 100 µM (inactive) | 57.1 µM (inactive) | 44.4 µM (inactive) | 78 µM (inactive) | 46.3 µM (inactive) | 29.5 µM (inactive) | > 100 µM (inactive) | > 100 µM (inactive) | 43 µM (inactive) | 22.7 µM (inactive) | 43.4 µM (inactive) | > 100 µM (inactive) | 28 µM (inactive) | 37.1 µM (inactive)
CC(C)(C)c1cc(C(C)(C)C)c(SC2OC(CO)C(O)C(O)C2O)c(O)c1O (stereo not given) | 12.7 µM (inactive) | 6.53 µM (inactive) | 5.27 µM (inactive) | 13.7 µM (inactive) | 6.22 µM (inactive) | 13.1 µM (inactive) | 7.1 µM (inactive) | 9.64 µM (inactive) | 6.87 µM (inactive) | 18.3 µM (inactive) | 5.4 µM (inactive) | 17.8 µM (inactive) | 12.6 µM (inactive) | 9.18 µM (inactive) | 9.18 µM (inactive) | 0.36 µM (active) | 3.48 µM (inactive) | 15.6 µM (inactive) | 4.52 µM (inactive) | 19.3 µM (inactive)
CC1NC(C(=O)O)Cc2cc(O)c(O)cc21 (stereo not given) | > 100 µM (inactive) | > 100 µM (inactive) | 91.2 µM (inactive) | > 100 µM (inactive) | > 100 µM (inactive) | > 100 µM (inactive) | > 100 µM (inactive) | > 100 µM (inactive) | > 100 µM (inactive) | > 100 µM (inactive) | > 100 µM (inactive) | > 100 µM (inactive) | > 100 µM (inactive) | > 100 µM (inactive) | > 100 µM (inactive) | > 100 µM (inactive) | > 100 µM (inactive) | > 100 µM (inactive) | > 100 µM (inactive) | > 100 µM (inactive)
C=C(CCC/C(C)=C/C=C/[C@]1(C)CCCc2ccoc21)CC(=O)O | > 100 µM (inactive) | > 100 µM (inactive) | 50 µM (inactive) | 42.5 µM (inactive) | > 100 µM (inactive) | 60 µM (inactive) | > 100 µM (inactive) | > 100 µM (inactive) | > 100 µM (inactive) | > 100 µM (inactive) | 82.6 µM (inactive) | > 100 µM (inactive) | > 100 µM (inactive) | > 100 µM (inactive) | 90.6 µM (inactive) | > 100 µM (inactive) | > 100 µM (inactive) | > 100 µM (inactive) | 39.3 µM (inactive) | > 100 µM (inactive)
